Data as given in ChEMBL document CHEMBL5715260, “Selectivity Literature for EUbOPEN Chemogenomic Library” (2024).
Each block holds one compound with its values, some of them ahead of it.

Experiments:
Parameters in all cases: recommended concentration 1 uM
[1] = target: 5-hydroxytryptamine receptor 2B (Homo sapiens) (UniProt P41595); experiment: Selectivity interaction (CEREP panel) EUB0000089c HTR2B; conditions: at 10 µM
[2] = target: Adenosine receptor A2a (Homo sapiens) (UniProt P29274); experiment: Selectivity interaction (CEREP panel) EUB0000089c ADORA2A; conditions: at 10 µM
Sequence of Adenosine receptor A2a (Homo sapiens) (P29274 whole entry): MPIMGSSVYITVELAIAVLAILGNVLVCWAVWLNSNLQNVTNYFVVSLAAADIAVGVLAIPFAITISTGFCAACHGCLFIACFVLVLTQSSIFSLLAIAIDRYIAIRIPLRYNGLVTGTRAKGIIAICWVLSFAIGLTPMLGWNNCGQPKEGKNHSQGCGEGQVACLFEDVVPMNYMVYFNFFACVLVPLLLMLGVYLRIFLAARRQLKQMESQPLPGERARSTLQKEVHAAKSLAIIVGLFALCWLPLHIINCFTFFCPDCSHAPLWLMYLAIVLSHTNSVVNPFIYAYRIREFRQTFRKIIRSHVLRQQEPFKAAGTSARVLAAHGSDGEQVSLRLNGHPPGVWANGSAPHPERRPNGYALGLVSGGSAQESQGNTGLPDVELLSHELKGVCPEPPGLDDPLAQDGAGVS

[3] = target: Sodium-dependent noradrenaline transporter (Homo sapiens) (UniProt P23975); experiment: Selectivity interaction (CEREP panel) EUB0000089c SLC6A2; conditions: at 10 µM
Sequence of Sodium-dependent noradrenaline transporter (Homo sapiens) (P23975 whole entry): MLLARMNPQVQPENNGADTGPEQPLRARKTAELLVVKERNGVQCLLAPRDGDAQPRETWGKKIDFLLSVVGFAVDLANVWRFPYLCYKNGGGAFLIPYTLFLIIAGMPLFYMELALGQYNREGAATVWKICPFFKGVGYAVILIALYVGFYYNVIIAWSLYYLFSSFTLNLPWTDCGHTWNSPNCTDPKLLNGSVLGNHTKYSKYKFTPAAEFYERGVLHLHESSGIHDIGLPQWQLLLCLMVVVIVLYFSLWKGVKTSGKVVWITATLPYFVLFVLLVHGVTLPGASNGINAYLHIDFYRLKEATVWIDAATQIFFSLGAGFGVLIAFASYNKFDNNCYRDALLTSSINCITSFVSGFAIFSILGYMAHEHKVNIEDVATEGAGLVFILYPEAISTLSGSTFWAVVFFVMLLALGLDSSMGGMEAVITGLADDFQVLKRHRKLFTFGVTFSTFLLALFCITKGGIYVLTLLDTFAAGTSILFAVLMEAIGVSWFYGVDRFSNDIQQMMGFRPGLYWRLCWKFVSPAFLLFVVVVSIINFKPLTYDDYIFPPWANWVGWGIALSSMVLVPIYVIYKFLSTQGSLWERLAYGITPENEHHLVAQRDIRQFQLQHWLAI

[4] = target: Adenosine receptor A1 (Homo sapiens) (UniProt P30542); experiment: Selectivity interaction (CEREP panel) EUB0000089c ADORA1; conditions: at 10 µM
[5] = target: Steroidogenic factor 1 (Homo sapiens) (UniProt Q13285); experiment: Selectivity interaction (Reporter gene assay) EUB0000184b NR5A1
Sequence of Steroidogenic factor 1 (Homo sapiens) (Q13285 whole entry): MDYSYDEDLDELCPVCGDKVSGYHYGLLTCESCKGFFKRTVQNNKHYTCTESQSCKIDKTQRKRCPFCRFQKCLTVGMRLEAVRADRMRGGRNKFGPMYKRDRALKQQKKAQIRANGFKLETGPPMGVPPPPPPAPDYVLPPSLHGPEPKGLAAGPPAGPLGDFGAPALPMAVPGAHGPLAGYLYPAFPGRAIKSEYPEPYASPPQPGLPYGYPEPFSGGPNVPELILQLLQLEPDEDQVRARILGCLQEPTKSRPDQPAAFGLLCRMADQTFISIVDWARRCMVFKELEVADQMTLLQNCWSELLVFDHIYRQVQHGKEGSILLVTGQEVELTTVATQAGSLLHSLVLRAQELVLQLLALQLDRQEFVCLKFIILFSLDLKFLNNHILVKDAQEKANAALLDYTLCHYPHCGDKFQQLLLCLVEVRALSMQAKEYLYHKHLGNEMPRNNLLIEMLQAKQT

[6] = target: T1, Alpha trans-inducing protein (Human alphaherpesvirus 1) (UniProt A0A5J6DW59); experiment: Selectivity interaction (Reporter gene assay) EUB0000184b UL48
T1 sequence (A0A5J6DW59 as listed by the source): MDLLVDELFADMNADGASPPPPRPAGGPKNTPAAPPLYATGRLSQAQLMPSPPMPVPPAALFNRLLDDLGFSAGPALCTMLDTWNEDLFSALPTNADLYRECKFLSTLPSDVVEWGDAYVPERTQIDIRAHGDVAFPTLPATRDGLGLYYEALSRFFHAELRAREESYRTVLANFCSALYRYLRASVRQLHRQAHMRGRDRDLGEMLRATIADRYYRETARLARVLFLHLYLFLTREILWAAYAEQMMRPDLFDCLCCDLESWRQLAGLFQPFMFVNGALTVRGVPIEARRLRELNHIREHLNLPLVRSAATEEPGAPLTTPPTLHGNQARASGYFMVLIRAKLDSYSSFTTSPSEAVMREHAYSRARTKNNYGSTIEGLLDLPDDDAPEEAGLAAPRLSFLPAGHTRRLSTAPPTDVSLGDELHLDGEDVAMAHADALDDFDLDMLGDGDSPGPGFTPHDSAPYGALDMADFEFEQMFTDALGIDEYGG

[7] = target: Nuclear receptor subfamily 4immunitygroup A member 1 (Homo sapiens) (UniProt P22736); experiment: Selectivity interaction (Reporter gene assay) EUB0000184b NR4A1
Sequence of Nuclear receptor subfamily 4immunitygroup A member 1 (Homo sapiens) (P22736 whole entry): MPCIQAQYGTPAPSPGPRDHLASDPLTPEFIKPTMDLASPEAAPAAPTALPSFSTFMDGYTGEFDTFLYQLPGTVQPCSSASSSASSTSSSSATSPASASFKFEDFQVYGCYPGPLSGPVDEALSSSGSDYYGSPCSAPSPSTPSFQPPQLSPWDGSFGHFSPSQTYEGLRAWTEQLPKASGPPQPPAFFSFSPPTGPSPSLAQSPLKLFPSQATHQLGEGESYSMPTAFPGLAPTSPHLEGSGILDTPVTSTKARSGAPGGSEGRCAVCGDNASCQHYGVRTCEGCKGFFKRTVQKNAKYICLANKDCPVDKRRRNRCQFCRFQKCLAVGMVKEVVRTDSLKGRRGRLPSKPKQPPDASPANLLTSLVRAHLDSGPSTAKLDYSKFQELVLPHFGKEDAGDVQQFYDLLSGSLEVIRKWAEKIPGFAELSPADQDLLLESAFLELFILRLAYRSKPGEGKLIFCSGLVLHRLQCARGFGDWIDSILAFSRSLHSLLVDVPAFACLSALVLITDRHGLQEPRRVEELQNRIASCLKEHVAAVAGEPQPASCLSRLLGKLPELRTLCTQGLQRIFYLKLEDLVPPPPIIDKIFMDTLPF

[8] = target: T2, Retinoic acid receptor RXR-alpha (Homo sapiens) (UniProt P19793); experiment: Selectivity interaction (Reporter gene assay) EUB0000184b RXRA
T2 sequence (whole entry): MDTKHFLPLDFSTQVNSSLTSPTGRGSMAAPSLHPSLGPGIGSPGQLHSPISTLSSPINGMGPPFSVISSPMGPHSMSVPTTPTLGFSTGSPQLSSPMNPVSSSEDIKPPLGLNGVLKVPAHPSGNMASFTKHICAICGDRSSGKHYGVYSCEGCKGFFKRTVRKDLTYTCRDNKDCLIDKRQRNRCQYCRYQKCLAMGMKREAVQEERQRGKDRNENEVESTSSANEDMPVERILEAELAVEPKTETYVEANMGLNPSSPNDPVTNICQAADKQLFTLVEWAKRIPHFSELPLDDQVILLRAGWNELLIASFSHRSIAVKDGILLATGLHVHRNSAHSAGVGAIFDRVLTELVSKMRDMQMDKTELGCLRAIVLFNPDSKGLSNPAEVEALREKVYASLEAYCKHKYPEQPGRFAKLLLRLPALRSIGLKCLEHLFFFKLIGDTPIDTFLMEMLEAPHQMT

[9] = target: T3, Hepatocyte nuclear factor 4-alpha (Homo sapiens) (UniProt P41235); experiment: Selectivity interaction (Reporter gene assay) EUB0000184b HNF4A
T3 sequence (whole entry): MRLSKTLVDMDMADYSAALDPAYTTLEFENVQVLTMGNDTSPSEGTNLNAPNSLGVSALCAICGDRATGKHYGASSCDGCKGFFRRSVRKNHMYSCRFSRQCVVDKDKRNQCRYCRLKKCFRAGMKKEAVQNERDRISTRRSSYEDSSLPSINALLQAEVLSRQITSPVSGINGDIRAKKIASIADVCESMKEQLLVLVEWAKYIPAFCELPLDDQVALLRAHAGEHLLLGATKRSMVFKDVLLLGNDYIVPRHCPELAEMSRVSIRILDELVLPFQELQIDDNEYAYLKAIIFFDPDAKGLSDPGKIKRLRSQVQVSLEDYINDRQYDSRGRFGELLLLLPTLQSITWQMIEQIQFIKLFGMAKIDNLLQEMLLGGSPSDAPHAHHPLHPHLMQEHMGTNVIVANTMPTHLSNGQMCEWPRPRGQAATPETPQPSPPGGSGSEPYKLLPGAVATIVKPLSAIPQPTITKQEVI

[10] = target: T4, Nuclear receptor subfamily 2 group C member 1 (Homo sapiens) (UniProt P13056); experiment: Selectivity interaction (Reporter gene assay) EUB0000184b NR2C1
T4 sequence (whole entry): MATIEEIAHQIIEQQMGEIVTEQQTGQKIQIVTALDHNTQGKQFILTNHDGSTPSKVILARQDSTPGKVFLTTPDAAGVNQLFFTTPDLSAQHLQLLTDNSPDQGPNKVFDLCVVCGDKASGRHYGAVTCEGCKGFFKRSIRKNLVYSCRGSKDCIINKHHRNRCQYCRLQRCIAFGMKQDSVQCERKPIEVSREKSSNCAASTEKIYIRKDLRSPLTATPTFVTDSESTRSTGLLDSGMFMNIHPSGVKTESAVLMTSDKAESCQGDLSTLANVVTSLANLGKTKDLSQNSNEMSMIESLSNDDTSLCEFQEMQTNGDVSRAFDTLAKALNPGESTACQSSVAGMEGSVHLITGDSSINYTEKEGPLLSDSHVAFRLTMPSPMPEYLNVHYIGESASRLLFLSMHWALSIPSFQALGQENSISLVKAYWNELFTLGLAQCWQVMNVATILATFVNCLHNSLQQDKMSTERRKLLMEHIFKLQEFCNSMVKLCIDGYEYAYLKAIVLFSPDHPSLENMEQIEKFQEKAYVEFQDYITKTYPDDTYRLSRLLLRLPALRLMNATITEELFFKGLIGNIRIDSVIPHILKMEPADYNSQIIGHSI

[11] = target: Nuclear receptor subfamily 2 group E member 1 (Homo sapiens) (UniProt Q9Y466); experiment: Selectivity interaction (Reporter gene assay) EUB0000184b NR2E1
Sequence of Nuclear receptor subfamily 2 group E member 1 (Homo sapiens) (Q9Y466 whole entry): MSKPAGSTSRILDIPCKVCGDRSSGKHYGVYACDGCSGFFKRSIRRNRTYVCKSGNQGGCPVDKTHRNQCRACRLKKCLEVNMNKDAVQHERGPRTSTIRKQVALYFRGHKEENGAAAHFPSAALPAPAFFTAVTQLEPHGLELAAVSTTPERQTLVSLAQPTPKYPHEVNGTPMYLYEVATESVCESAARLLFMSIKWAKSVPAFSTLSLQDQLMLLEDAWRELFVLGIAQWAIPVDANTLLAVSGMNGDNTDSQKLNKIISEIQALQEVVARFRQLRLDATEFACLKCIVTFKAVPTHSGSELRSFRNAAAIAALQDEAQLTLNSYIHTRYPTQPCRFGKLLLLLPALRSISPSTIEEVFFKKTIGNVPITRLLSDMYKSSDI

[12] = target: T2, Retinoic acid receptor RXR-alpha (Homo sapiens); experiment: Selectivity interaction (Reporter gene assay) EUB0000185b RXRA; conditions: reference bexarotene 1 uM, Selectivity number of off-targets 0.0, Selectivity number of targets 1.0, Source Knowledge inhouse
[13] = target: Nuclear receptor subfamily 2 group E member 1 (Homo sapiens) (UniProt Q9Y466); experiment: Selectivity interaction (Reporter gene assay) EUB0000185b NR2E1
[14] = target: Nuclear receptor subfamily 4immunitygroup A member 1 (Homo sapiens) (UniProt P22736); experiment: Selectivity interaction (Reporter gene assay) EUB0000185b NR4A1
[15] = target: Steroidogenic factor 1 (Homo sapiens) (UniProt Q13285); experiment: Selectivity interaction (Reporter gene assay) EUB0000185b NR5A1
[16] = target: T3, Hepatocyte nuclear factor 4-alpha (Homo sapiens); experiment: Selectivity interaction (Reporter gene assay) EUB0000185b HNF4A
[17] = target: T4, Nuclear receptor subfamily 2 group C member 1 (Homo sapiens); experiment: Selectivity interaction (Reporter gene assay) EUB0000185b NR2C1
[18] = target: T1, Alpha trans-inducing protein (Human alphaherpesvirus 1); experiment: Selectivity interaction (Reporter gene assay) EUB0000185b UL48
[19] = target: Peroxisome proliferator-activated receptor delta (Homo sapiens) (UniProt Q03181); experiment: Selectivity interaction (Reporter gene assay) EUB0000185b PPARD; conditions: screened at recom. conc., Selectivity number of off-targets 1.0, Selectivity number of targets 19.0, Source Knowledge inhouse
Sequence of Peroxisome proliferator-activated receptor delta (Homo sapiens) (Q03181 whole entry): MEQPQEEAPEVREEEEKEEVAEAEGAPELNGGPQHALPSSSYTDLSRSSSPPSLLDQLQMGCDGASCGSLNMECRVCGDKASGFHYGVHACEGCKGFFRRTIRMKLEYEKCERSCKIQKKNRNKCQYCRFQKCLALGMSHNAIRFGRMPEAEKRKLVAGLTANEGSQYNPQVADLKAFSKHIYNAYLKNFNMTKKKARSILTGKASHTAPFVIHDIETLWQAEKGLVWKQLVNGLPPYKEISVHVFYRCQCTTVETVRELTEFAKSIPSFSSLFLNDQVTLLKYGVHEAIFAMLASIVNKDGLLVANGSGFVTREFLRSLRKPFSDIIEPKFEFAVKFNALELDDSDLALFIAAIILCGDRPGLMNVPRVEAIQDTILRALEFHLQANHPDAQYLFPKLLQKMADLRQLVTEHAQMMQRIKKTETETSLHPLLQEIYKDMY

[20] = target: Nuclear receptor subfamily 2 group E member 1 (Homo sapiens) (UniProt Q9Y466); experiment: Selectivity interaction (Reporter gene assay) EUB0000182b NR2E1
[21] = target: T2, Retinoic acid receptor RXR-alpha (Homo sapiens); experiment: Selectivity interaction (Reporter gene assay) EUB0000182b RXRA; conditions: reference bexarotene 1 uM, Selectivity number of off-targets 0.0, Selectivity number of targets 1.0, Source Knowledge inhouse
[22] = target: T4, Nuclear receptor subfamily 2 group C member 1 (Homo sapiens); experiment: Selectivity interaction (Reporter gene assay) EUB0000182b NR2C1
[23] = target: Nuclear receptor subfamily 4immunitygroup A member 1 (Homo sapiens) (UniProt P22736); experiment: Selectivity interaction (Reporter gene assay) EUB0000182b NR4A1
[24] = target: Steroidogenic factor 1 (Homo sapiens) (UniProt Q13285); experiment: Selectivity interaction (Reporter gene assay) EUB0000182b NR5A1
[25] = target: T1, Alpha trans-inducing protein (Human alphaherpesvirus 1); experiment: Selectivity interaction (Reporter gene assay) EUB0000182b UL48
[26] = target: T3, Hepatocyte nuclear factor 4-alpha (Homo sapiens); experiment: Selectivity interaction (Reporter gene assay) EUB0000182b HNF4A
[27] = target: Histamine H3 receptor (Homo sapiens) (UniProt Q9Y5N1); experiment: Selectivity interaction (Custom Panel of enzymes and receptors (Eurofins)) EUB0000234b HRH3; conditions: at 10 µM
Sequence of Histamine H3 receptor (Homo sapiens) (Q9Y5N1 whole entry): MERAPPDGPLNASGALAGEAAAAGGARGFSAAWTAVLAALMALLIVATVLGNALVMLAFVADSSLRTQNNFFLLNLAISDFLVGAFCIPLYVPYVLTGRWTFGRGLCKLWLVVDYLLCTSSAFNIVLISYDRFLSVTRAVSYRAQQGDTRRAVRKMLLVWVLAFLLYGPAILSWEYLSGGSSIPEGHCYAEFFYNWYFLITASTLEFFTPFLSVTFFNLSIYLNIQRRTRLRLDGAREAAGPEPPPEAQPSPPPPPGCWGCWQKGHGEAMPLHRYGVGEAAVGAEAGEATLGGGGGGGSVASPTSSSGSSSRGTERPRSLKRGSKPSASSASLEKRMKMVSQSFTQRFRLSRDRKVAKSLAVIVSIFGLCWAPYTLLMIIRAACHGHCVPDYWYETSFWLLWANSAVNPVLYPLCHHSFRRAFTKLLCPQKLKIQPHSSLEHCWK

Mu-type opioid receptor = Mu-type opioid receptor (Homo sapiens, UniProt P35372); experiment: Selectivity interaction (Custom Panel of enzymes and receptors (Eurofins)) EUB0000234b OPRM1; conditions: at 10 µM
[28] = target: Muscarinic acetylcholine receptor M2 (Homo sapiens) (UniProt P08172); experiment: Selectivity interaction (Custom Panel of enzymes and receptors (Eurofins)) EUB0000234b CHRM2; conditions: at 10 µM
Sequence of Muscarinic acetylcholine receptor M2 (Homo sapiens) (P08172 whole entry): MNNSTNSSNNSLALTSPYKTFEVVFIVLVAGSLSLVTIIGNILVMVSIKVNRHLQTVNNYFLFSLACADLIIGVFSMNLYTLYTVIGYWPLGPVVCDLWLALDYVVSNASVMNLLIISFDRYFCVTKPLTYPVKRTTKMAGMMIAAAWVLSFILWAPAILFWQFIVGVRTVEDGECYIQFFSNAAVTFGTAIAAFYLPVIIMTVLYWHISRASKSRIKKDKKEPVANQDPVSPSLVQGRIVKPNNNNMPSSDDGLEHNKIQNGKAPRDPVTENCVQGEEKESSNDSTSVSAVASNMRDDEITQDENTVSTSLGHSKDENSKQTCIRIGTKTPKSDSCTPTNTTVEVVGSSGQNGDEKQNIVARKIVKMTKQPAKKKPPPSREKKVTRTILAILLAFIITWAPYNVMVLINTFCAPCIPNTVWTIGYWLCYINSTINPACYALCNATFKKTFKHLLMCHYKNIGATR

[29] = target: Alpha-2B adrenergic receptor (Homo sapiens) (UniProt P18089); experiment: Selectivity interaction (Custom Panel of enzymes and receptors (Eurofins)) EUB0000234b ADRA2B; conditions: at 10 µM

Sequence of 5-hydroxytryptamine receptor 2B (Homo sapiens) (P41595 whole entry): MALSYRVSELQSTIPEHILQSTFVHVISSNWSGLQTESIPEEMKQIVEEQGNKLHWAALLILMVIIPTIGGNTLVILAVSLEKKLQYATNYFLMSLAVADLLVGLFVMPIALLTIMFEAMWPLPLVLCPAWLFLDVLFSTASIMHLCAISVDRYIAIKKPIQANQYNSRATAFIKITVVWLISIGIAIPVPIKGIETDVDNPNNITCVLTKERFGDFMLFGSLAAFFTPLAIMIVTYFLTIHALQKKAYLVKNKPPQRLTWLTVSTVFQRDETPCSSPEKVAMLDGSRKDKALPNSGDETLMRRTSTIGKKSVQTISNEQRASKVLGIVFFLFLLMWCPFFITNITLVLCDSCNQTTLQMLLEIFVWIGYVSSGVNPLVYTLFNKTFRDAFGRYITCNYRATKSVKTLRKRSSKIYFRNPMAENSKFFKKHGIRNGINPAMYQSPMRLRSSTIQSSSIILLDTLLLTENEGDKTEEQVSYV

- Relative activation [12]: 0.845%
- Remaining activity [13]: 0.915
- Fold activation [14]: 1.03
- Remaining activity [15]: 0.897
- Remaining activity [16]: 0.944
- Fold activation [17]: 1.49
- P-value [18]: 2.26e-05
- Fold activation [19]: 19.1
Structure (SMILES): CC(C)(Sc1ccc(CCN(CCCCC2CCCCC2)C(=O)NC2CCCCC2)cc1)C(=O)O

- Fold activation [20]: 1.24
- Relative activation [21]: 0.492%
- Fold activation [22]: 1.38
- Fold activation [23]: 1.14
- Fold activation [24]: 1.09
- P-value [25]: 2.38e-08
- Fold activation [26]: 1.05
Structure (SMILES): COC(=O)/C=C/c1cccc(N(Cc2ccc(-c3ccc(N(C)C)cc3)cc2)C(=O)C2CCCCC2)c1

Further lines, the compound ahead of its results:

Structure (SMILES): Nc1nc(NC2CC2)cc(-c2cccc(Cl)c2Cl)n1
- Inhibition of control [1]: 92%
- Inhibition of control [2]: 81%
- Inhibition of control [3]: 99%
- Inhibition of control [4]: 79%

Structure (SMILES): CC(C)c1onc(-c2c(Cl)cccc2Cl)c1COc1ccc(/C=C/c2cccc(C(=O)O)c2)c(Cl)c1
- Remaining activity [5]: 0.927
- P-value [6]: 3.89e-13
- Fold activation [7]: 1.41
- Relative activation [8]: 0.803%
- Fold activation [9]: 1.24
- Fold activation [10]: 1.33
- Fold activation [11]: 1.12

Structure (SMILES): COc1cc(OC)cc(-c2noc(N3CCN(C)C4(CCN(c5ccnc(C)c5)CC4)C3)n2)c1
- Inhibition of control [27]: > 50%
- Inhibition of control (Mu-type opioid receptor): > 50%
- Inhibition of control [28]: > 50%
- Inhibition of control [29]: > 50%
